US4214091A, “Antibiotic No. 2-200 and process for producing thereof” (Chugai Seiyaku Kabushiki Kaisha, priority 1977, dated 1980)
Where two headings read alike, the source gives them in different places.

Key:
Format in all cases: cell-based
Bacteroides fragilis V-6 = assay: MIC, GAM agar, anaerobic; conditions: V6, 40 h, read-out: Minimum inhibitory concentration (MIC)
Description: (§1) Minimum inhibitory concentration (MIC) for gram
(§2) Note: incubated at 37° C. for 40 hours on GAM agar medium (product
(§3) of Nippon Seiyaku) using anaerobic incubator. Inoculated with 10^6

[1] = system: Fusobacterium necroforum S-45; assay: MIC, GAM agar, anaerobic; conditions: S45, 37° C., 40 hours, inoculum 10^6/ML, read-out: Minimum inhibitory concentration (MIC)
Description: as §1, §2, §3

Bacteroides fragilis V-7 = assay: MIC, GAM agar, anaerobic; conditions: V7, 40 h, read-out: Minimum inhibitory concentration (MIC)
Description: as §1, §2, §3

Bacteroides fragilis V-8 = assay: MIC, GAM agar, anaerobic; conditions: V8, 40 h, read-out: Minimum inhibitory concentration (MIC)
Description: as §1, §2, §3

[2] = system: Fusobacterium glutinosum 1006; assay: MIC, GAM agar, anaerobic; conditions: 37° C., 40 hours, inoculum 10^6/ML, read-out: Minimum inhibitory concentration (MIC)
Description: as §1, §2, §3

Shigella flexneri 2b = assay: MIC by agar plate dilution method; conditions: 24 h, 37° C., read-out: Minimum inhibitory concentration
Description: (§4) The test organisms were incubated by agar plate dilution method at 37° C. for 24 hours, after which their growth was observed. The test organisms were incubated on an NB medium (product of Eiken Kagaku) at 37° C. overnight, and each culture obtained was diluted 10^3 - to 10^4 -fold and stamped on an agar plate. The following agar plate media were used:
(§5) NA: nutrient agar (product of Eiken Kagaku)
(§6) NA+G6P: glucose-6-phosphoric acid (50 μg/ml) plus nutrient agar
(§7) Anti-3A: antibiotic medium No. 3 agar (product of Difco)
(§8) MHA: Mueller Hinton Agar (product of Eiken Kagaku)

[3] = system: Staphylococcus aureus A-5; assay: MIC by agar plate dilution method; conditions: A5, 24 h, 37° C., read-out: Minimum inhibitory concentration
Description: as §4, §5, §6, §7, §8

Escherichia coli No. 9 = assay: MIC by agar plate dilution method; conditions: NO.9, 24 h, 37° C., read-out: Minimum inhibitory concentration
Description: as §4, §5, §6, §7, §8

[4] = system: Klebsiella pneumoniae 3K25; assay: MIC by agar plate dilution method; conditions: 3K25, 24 h, 37° C., read-out: Minimum inhibitory concentration
Description: as §4, §5, §6, §7, §8

Shigella sonnei = assay: MIC by agar plate dilution method; conditions: 24 h, 37° C., read-out: Minimum inhibitory concentration
Description: as §4, §5, §6, §7, §8

[5] = system: Pseudomonas aeruginosa J-272; assay: MIC by agar plate dilution method; conditions: 37° C., 24 hours
Description: as §4, §5, §6, §7, §8

[6] = system: Staphylococcus aureus JU-5; assay: MIC by agar plate dilution method; conditions: JU5, 24 h, 37° C., read-out: Minimum inhibitory concentration
Description: as §4, §5, §6, §7, §8

Bacillus thuringensis = assay: MIC by agar plate dilution method; conditions: 24 h, 37° C., read-out: Minimum inhibitory concentration
Description: as §4, §5, §6, §7, §8

[7] = system: Serratia marrcescens FU-111; assay: MIC by agar plate dilution method; conditions: FU111, 24 h, read-out: Minimum inhibitory concentration
Description: as §4, §5, §6, §7, §8

Proteus mirabilis 9' = assay: MIC by agar plate dilution method; conditions: 24 h, 37° C., read-out: Minimum inhibitory concentration
Description: as §4, §5, §6, §7, §8

[8] = system: Staphylococcus aureus 222; assay: MIC by agar plate dilution method; conditions: Staphylococcus aureus, 222, 24 h, 37° C., read-out: Minimum inhibitory concentration
Description: as §4, §5, §6, §7, §8

[9] = system: Bacillus subtilis PCI-219; assay: MIC by agar plate dilution method; conditions: 37° C., 24 hours
Description: as §4, §5, §6, §7, §8

[10] = system: Salmonella enteritidis T-1; assay: MIC by agar plate dilution method; conditions: Salmonella enterica, 24 h, 37° C., read-out: Minimum inhibitory concentration
Description: as §4, §5, §6, §7, §8

[11] = system: Serratia marrcescens T-50; assay: MIC by agar plate dilution method; conditions: for MIC: Serratia
Description: as §4, §5, §6, §7, §8

Proteus mirabilis 1287 = assay: MIC by agar plate dilution method; conditions: 37° C., 24 hours
Description: as §4, §5, §6, §7, §8

[12] = system: Pseudomonas aeruginosa M57740; assay: MIC by agar plate dilution method
Description: as §4, §5, §6, §7, §8

Sarcina lutea = assay: MIC by agar plate dilution method; conditions: Micrococcus luteus
Description: as §4, §5, §6, §7, §8

Escherichia coli NIHJ = assay: MIC by agar plate dilution method; conditions: 24 h, 37° C., read-out: Minimum inhibitory concentration
Description: as §4, §5, §6, §7, §8

[13] = NA + G6P (50 μg/ml), 37° C., 24 hours

C=CC(C)=CC1(C)SC(=O)C(C)=C1O (single isomer, unassigned) [No. 2-200]
12.5 µg/mL: MIC (Bacteroides fragilis V-7) | MIC ([11]; T50, 24 h, read-out: Minimum inhibitory concentration, Anti-3A, 37° C.) | MIC (Sarcina lutea; 24 h, read-out: Minimum inhibitory concentration, Anti-3A, 37° C.) | MIC (Sarcina lutea; 24 h, read-out: Minimum inhibitory concentration, NA + G6P (50 μg/ml), 37° C.) | MIC (Sarcina lutea; 24 h, read-out: Minimum inhibitory concentration, NA, 37° C.)
200 µg/mL: MIC ([4]; NA) | MIC (Proteus mirabilis 9'; MHA) | MIC (Escherichia coli NIHJ; Anti-3A) | MIC (Escherichia coli NIHJ; NA)
3.12 µg/mL: MIC (Bacteroides fragilis V-6) | MIC [1] | MIC (Shigella flexneri 2b; Anti-3A) | MIC ([10]; Anti-3A) | MIC ([10]; MHA)
≤ 0.78 µg/mL: MIC ([12]; M57740, MHA, 37° C., 24 hours, read-out: Minimum inhibitory concentration)
≥ 400 µg/mL: MIC ([6]; NA + G6P (50 μg/ml)) | MIC ([8]; NA + G6P (50 μg/ml))
> 400 µg/mL: Minimum inhibitory concentration ([5]; Anti-3A) | Minimum inhibitory concentration ([5]; MHA) | Minimum inhibitory concentration ([5]; NA + G6P (50 μg/ml)) | MIC ([5]; Pseudomonas aeruginosa, J272, NA, read-out: Minimum inhibitory concentration) | MIC ([6]; Anti-3A) | MIC ([6]; NA) | MIC ([8]; Anti-3A) | MIC ([8]; NA)
6.25 µg/mL: MIC (Bacteroides fragilis V-8) | MIC (Shigella flexneri 2b; NA + G6P (50 μg/ml)) | MIC (Shigella flexneri 2b; NA) | MIC [7] | MIC ([10]; NA + G6P (50 μg/ml)) | MIC ([10]; NA)
100 µg/mL: MIC [2] | MIC (Escherichia coli No. 9; Anti-3A) | MIC ([4]; NA + G6P (50 μg/ml)) | MIC (Shigella sonnei; Anti-3A) | MIC (Shigella sonnei; NA + G6P (50 μg/ml)) | MIC (Shigella sonnei; NA) | MIC ([6]; MHA) | MIC (Proteus mirabilis 9'; Anti-3A) | MIC ([8]; MHA) | MIC (Escherichia coli NIHJ; NA + G6P (50 μg/ml))
25 µg/mL: MIC ([3]; Anti-3A) | MIC ([3]; NA + G6P (50 μg/ml)) | MIC (Bacillus thuringensis; NA + G6P (50 μg/ml)) | MIC ([7]; Anti-3A, 37° C., 24 hours) | MIC (Sarcina lutea; MHA, 37° C., 24 hours, read-out: Minimum inhibitory concentration)
50 µg/mL: MIC ([3]; MHA) | MIC ([3]; NA) | MIC (Escherichia coli No. 9; MHA) | MIC (Escherichia coli No. 9; NA + G6P (50 μg/ml)) | MIC (Escherichia coli No. 9; NA) | MIC ([4]; Anti-3A) | MIC ([4]; MHA) | MIC (Shigella sonnei; MHA) | MIC (Bacillus thuringensis; Anti-3A) | MIC (Bacillus thuringensis; MHA) | MIC (Bacillus thuringensis; NA) | MIC [7, 13] | MIC ([7]; NA, 37° C., 24 hours) | MIC (Proteus mirabilis 9'; NA + G6P (50 μg/ml)) | MIC (Proteus mirabilis 9'; NA) | Minimum inhibitory concentration ([9]; Anti-3A) | MIC ([9]; Bacillus subtilis, PCI219, NA, read-out: Minimum inhibitory concentration) | Minimum inhibitory concentration ([9]; MHA) | Minimum inhibitory concentration ([9]; NA + G6P (50 μg/ml)) | Minimum inhibitory concentration [11, 13] | MIC ([11]; T50, NA, 37° C., 24 hours, read-out: Minimum inhibitory concentration) | Minimum inhibitory concentration (Proteus mirabilis 1287; Anti-3A) | Minimum inhibitory concentration (Proteus mirabilis 1287; MHA) | Minimum inhibitory concentration (Proteus mirabilis 1287; NA + G6P (50 μg/ml)) | MIC (Proteus mirabilis 1287; Proteus mirabilis, 1287, NA, read-out: Minimum inhibitory concentration) | MIC (Escherichia coli NIHJ; MHA)
1.56 µg/mL: MIC (Shigella flexneri 2b; MHA) | MIC ([11]; T50, 24 h, read-out: Minimum inhibitory concentration, MHA, 37° C.) | MIC ([12]; M57740, 24 h, read-out: Minimum inhibitory concentration, Anti-3A, 37° C.) | MIC ([12]; M57740, 24 h, read-out: Minimum inhibitory concentration, NA + G6P (50 μg/ml), 37° C.) | MIC ([12]; M57740, 24 h, read-out: Minimum inhibitory concentration, NA, 37° C.)
